Article PMC7450057, “Enhancing intracellular accumulation and target engagement of PROTACs with reversible covalent chemistry” (Nature Communications, 2020)
Several values for one entry are separate records, joined by “and”; a condition that tells them apart may be missing. Equal entries are not always repeated. Entries after “also recorded” stand apart in the source; their conditions may differ.

Columns and labels:
[1] = target: T1, C481S mutant BTK (Homo sapiens, UniProt Q06187, C481S); assay: BTK degradation in XLA cells overexpressing C481S mutant BTK (western blot); type: cell-based; settings: 24 h
T1 construct: expressed in transfected cells; host or cells: XLA cells (gift from Dr. Woyach)
T1 sequence (Q06187 whole entry C481S): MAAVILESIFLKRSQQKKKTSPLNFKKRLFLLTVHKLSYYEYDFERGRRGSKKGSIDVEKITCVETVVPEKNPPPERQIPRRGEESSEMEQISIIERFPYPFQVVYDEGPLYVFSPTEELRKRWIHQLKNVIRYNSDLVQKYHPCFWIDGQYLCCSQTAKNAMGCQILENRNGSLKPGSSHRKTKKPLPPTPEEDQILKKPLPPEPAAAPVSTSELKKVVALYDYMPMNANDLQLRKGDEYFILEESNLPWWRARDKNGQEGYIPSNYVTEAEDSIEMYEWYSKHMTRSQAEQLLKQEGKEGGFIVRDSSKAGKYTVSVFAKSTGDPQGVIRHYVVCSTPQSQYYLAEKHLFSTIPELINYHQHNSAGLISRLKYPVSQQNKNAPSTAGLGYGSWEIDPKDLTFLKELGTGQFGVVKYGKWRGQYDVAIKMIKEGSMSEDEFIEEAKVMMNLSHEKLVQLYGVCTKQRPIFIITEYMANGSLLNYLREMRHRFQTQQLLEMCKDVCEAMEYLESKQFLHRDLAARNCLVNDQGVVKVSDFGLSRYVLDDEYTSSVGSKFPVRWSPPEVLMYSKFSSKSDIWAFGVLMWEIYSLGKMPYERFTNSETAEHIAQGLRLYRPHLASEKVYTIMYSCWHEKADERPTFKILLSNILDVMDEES
Method: (§1) XLA cells overexpressing wild-type BTK or mutant C481S BTK were plated at the same cell number and density as the above experiments and were treated with RC-1, IRC-1, or RNC-1 at the dose of 1.6, 8.0, 40, 200, and 1000 nM for 24 h. After completion of treatment, all the cells were collected and processed for western blot analysis.
(§2) The collected cells and spleen tissues were lysed in RIPA lysis buffer (50 mM Tris-HCl, pH 7.4, 150 mM NaCl, 1% NP-40, 0.5% sodium deoxycholate, 0.1% SDS) supplemented with Halt™ Protease and Phosphatase Inhibitor Cocktail (Thermo Fisher Scientific, Cat. No. PI78440) immediately before use. Lysates were centrifuged at 15,000 × g for 10 min at 4 °C and the supernatant was quantified for total protein concentration using the Pierce BCA Protein Assay (Thermo Fisher Scientific, Cat. No. 23225). Thirty micrograms of protein were loaded onto sodium dodecyl sulfate−polyacrylamide gel for electrophoresis (Bio-Rad) and transferred onto PVDF membranes (Millipore, Cat. No. IPVH00010). […] Imaging was performed using the ECL Prime chemiluminescent western blot detection reagents (GE Healthcare, Cat. No. RPN2232) by visualization of the blots to X-Ray film or with an Imager (Kindle Biosciences, Cat. No. D1001). All western blots were subsequently processed and quantified with Imager software. Protein level was normalized to β-actin or GAPDH loading controls.

[2] = Permeability by lipid-PAMPA method (Pharmaron); type: in vitro ADME; settings: PAMPA; for recovery at 16 h, 10 μM: Recovery%; for Papp at 16 h, 10 μM: pH 7.4
Method: The permeability of compounds was measured using Lipid-PAMPA method by Pharmaron. Preparation of stock solutions: testosterone and methotrexate were used as control compounds in this assay. The stock solutions of positive controls were prepared in DMSO or acetonitrile at the concentration of 10 mM. Prepare a stock solution of compounds in DMSO at the concentration of 10 mM, and further dilute with PBS (pH 7.4). […]
Assay procedures: prepare a 1.8% solution (w/v) of lecithin in dodecane, and sonicate the mixture to ensure a complete dissolution. Carefully pipette 5 μL of the lecithin/dodecane mixture into each acceptor plate well (top compartment), avoiding pipette tip contact with the membrane. Immediately after the application of the artificial membrane (within 10 min), add 300 μL of PBS (pH 7.4) solution to each well of the acceptor plate. Add 300 μL of drug-containing solutions to each well of the donor plate (bottom compartment) in triplicate. Slowly and carefully place the acceptor plate into the donor plate, making sure the underside of the membrane is in contact with the drug-containing solutions in all wells. Replace the plate lid and incubate at 25 °C, 60 rpm for 16 h. After incubation, aliquots of 50 μL from each well of acceptor and donor plate are transferred into a 96-well plate. Add 450 μL of methanol (containing IS: 100 nM Alprazolam, 200 nM Caffeine, 100 nM Tolbutamide) into each well. Cover with plate lid. Vortex at 750 rpm for 100 s. Samples were centrifuged at 3220 × g for 20 min. Determine the compound concentrations by LC/MS/MS. The effective permeability (Pe), in units of centimeter per second, can be calculated using the following equation: LogPe=LogC×−Ln1−drugacceptor/drugequilibrium

[3] = target: BTK (Mus musculus, UniProt P35991); assay: BTK degradation in mouse B-cell lymphoma cell line derived from Eu-Myc mice; type: cell-based; parameters: endogenous in cells; host or cells: B cell lymphoma cell line derived from Eu-Myc mice; settings: for BTK quantification (anti-BTK / anti-β-actin): Supplementary Figure 10, replicates, DMSO about 100
Sequence of BTK (P35991 whole entry): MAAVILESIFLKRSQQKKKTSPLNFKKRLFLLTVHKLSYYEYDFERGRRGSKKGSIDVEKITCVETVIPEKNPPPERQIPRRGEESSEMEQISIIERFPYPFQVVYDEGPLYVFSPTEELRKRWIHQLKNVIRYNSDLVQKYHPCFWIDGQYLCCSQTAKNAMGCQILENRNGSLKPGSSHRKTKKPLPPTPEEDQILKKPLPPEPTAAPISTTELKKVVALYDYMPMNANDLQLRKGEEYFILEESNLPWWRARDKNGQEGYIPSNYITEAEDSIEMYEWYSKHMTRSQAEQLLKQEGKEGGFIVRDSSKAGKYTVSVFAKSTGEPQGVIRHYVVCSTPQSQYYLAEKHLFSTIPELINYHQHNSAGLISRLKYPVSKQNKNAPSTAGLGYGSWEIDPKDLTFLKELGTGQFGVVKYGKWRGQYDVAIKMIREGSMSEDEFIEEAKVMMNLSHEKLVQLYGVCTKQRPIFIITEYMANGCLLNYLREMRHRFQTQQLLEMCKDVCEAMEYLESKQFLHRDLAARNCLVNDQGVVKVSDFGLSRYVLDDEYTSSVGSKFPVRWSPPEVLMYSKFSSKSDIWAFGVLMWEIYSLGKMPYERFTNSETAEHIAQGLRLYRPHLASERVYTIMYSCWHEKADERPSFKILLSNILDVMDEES
Method: MOLM-14 cell line was obtained from Dr. Conneely at Baylor College of Medicine, and the Mino cells were purchased from the American Type Culture Collection (ATCC, Cat. No. CRL-3000). Both cell lines were cultured in RPMI 1640 medium (Thermo Fisher Scientific, Cat. No. MT10040CV) supplemented with 10% fetal bovine serum (GE Healthcare, Cat. No. SH30071.03) and 1% Pen/Strep (Thermo Fisher Scientific, Cat. No. 15140163). The wild-type and C481S BTK XLA cell lines were gifts from Dr. Woyach at The Ohio State University and were cultured in RPMI 1640 medium with 15% fetal bovine serum, 1% Pen/Strep, and 1.0 µg/ml puromycin (Thermo Fisher Scientific, Cat. No. A1113803). HEK 293T/17 cells were purchased from ATCC (Cat. No. CRL-11268) were maintained in DMEM (Thermo Fisher Scientific, Cat. No. MT10013CV) with 10% fetal bovine serum and 1% Pen-Strep. The B cell lymphoma cell line derived from Eu-Myc mice was a gift from Dr. Yulin Li at Houston Methodist Research Institute and cultured in RPMI 1640 medium supplemented with 15% (v/v) fetal bovine serum (FBS), 100 U/mL penicillin, 100 μg/mL streptomycin, and 0.05 mM beta-mercaptoethanol and puromycin (1 μg/mL). Cells were grown at 37 °C with 5% CO2.
as §2

[4] = tested on: Mino cells; assay: AlamarBlue cell viability assay, Mino; type: cell-based; settings: for Mino Cell Viability%: Figure 2f, 5 replicates; for IC50: Homo sapiens, Mino cells, 72 h, Alamar Blue
Method: The IC50 was calculated using GraphPad Prism software with a four-parameter dose-response curve fit.

[5] = target: T2, wild-type BTK (Homo sapiens, UniProt Q06187); assay: BTK degradation in XLA cells overexpressing wild-type BTK (western blot); type: cell-based; settings: 24 h
T2 construct: expressed in transfected cells; host or cells: XLA cells (gift from Dr. Woyach)
T2 sequence (Q06187 whole entry): as the sequence (Q06187 whole entry C481S) above, with S481C counted along it
Method: as §1, §2

[6] = tested on: IKZF3; assay: Splenic IKZF3 level in mice after single RC-1 injection (western blot); type: in vivo, ICR mice; settings: for IKZF3 level, mean: Figure 5d, DMSO = 100; for IKZF3 quantification: Supplementary Figure 8, individual animals
Method: To investigate the protein degradation effect of RC-1 in vivo, mice were subjected to single RC-1 administration at the dose of 50 or 100 mg kg^−1 (i.p.) or seven once-daily RC-1 administration at the dose of 20 mg kg^−1 (i.p.) (n = 2–3). Twenty-four hours after the one-time RC-1 injection or 24 h after the 7th injection, mice were anesthetized with isoflurane and the whole spleen was dissected and stored at −80 °C for western blot analysis of protein level.
Supplementary Figure 8. Protein degradation by BTK PROTAC RC-1 in mouse spleen. ICR mice were subjected to single IP injection of RC-1 at the dose of 50 mg/kg (n = 4) or 100 mg/kg (n = 3) and spleens were harvested 24 h after injection. (a) The splenic p-BTK(Y233), BTK, IKZF1 and IKZF3 levels were measured with Western blot. (b). Quantification of protein levels shown in (a). Data are presented as mean values ± SEM.
Asterisks indicate that the differences between samples are statistically significant, using two-tailed, unpaired t- […]
test (* p < 0.05; significant).
(1 picture or pasted object on this page, not shown here)

Row | recovery at 16 h, 10 μM [2] | Papp at 16 h, 10 μM [2] | BTK quantification (anti-BTK / anti-β-actin) ([3]; 8 nM) | BTK quantification (anti-BTK / anti-β-actin) ([3]; 40 nM) | BTK quantification (anti-BTK / anti-β-actin) ([3]; 200 nM) | Compound | BTK degradation (in words) [1] | Mino Cell Viability% ([4]; 1.00E-06 M) | Mino Cell Viability% ([4]; 1.60E-09 M) | Mino Cell Viability% ([4]; 2.00E-07 M) | Mino Cell Viability% ([4]; 3.20E-10 M) | Mino Cell Viability% ([4]; 4.00E-08 M) | Mino Cell Viability% ([4]; 5.00E-06 M) | Mino Cell Viability% ([4]; 8.00E-09 M) | IC50 [4] | BTK degradation (in words) [5] | IKZF3 level, mean ([6]; 1 injection) | IKZF3 level, mean ([6]; 7 injections) | IKZF3 quantification ([6]; RC-1 50 mg/kg, 50 mg/kg) | IKZF3 quantification ([6]; RC-1 100 mg/kg, 100 mg/kg) | maximum BTK degradation ([3]; dosed up to 25 µM, 24 h)
1 | 17.4% | < 0.0245 ×10⁻⁶ cm/s | 93.1337 and 89.8918 | 73.5656 and 73.5943 | 64.1549 and 63.4726 | CN(CC=CC(=O)N1CCCC(n2nc(-c3ccc(Oc4ccccc4)cc3)c3c(N)ncnc32)C1)CCCNC(=O)CNc1cccc2c1C(=O)N(C1CCC(=O)NC1=O)C2=O (stereo not drawn) [IRC-1] | much more effective degradation of the BTK C481S mutant than its wild-type | – | – | – | – | – | – | – | – | – | – | – | – | – | –
2 | 30% | < 0.00209 ×10⁻⁶ cm/s | 97.1575 and 95.3789 | 69.0679 and 73.2452 | 33.5661 and 27.9942 | CN(CCCNC(=O)CNc1cccc2c1C(=O)N(C1CCC(=O)NC1=O)C2=O)CCCC(=O)N1CCCC(n2nc(-c3ccc(Oc4ccccc4)cc3)c3c(N)ncnc32)C1 (stereo not drawn) [RNC-1] | – | 58.0853% and 51.9026% and 45.6712% and 52.4594% | 101.95% and 90.6294% and 68.165% and 98.7947% and 93.12% | 37.8282% and 87.963% and 68.8682% and 84.564% and 91.6647% | 102.731% and 88.3341% and 102.301% and 86.4979% and 82.7278% | 90.0141% and 69.2003% and 110.3% and 97.7887% and 98.2185% | 16.067% and 36.4022% and 19.085% and 31.8214% and 33.179% | 96.0404% and 89.3401% and 104.098% and 90.522% and 101.012% | 1 µM | – | – | – | – | – | –

Row | Compound | recovery at 16 h, 10 μM [2] | Papp at 16 h, 10 μM [2] | BTK quantification (anti-BTK / anti-β-actin) ([3]; 8 nM) | BTK quantification (anti-BTK / anti-β-actin) ([3]; 40 nM) | BTK quantification (anti-BTK / anti-β-actin) ([3]; 200 nM) | BTK degradation (in words) [1] | Mino Cell Viability% ([4]; 1.00E-06 M) | Mino Cell Viability% ([4]; 1.60E-09 M) | Mino Cell Viability% ([4]; 2.00E-07 M) | Mino Cell Viability% ([4]; 3.20E-10 M) | Mino Cell Viability% ([4]; 4.00E-08 M) | Mino Cell Viability% ([4]; 5.00E-06 M) | Mino Cell Viability% ([4]; 8.00E-09 M) | IC50 [4] | BTK degradation (in words) [5] | IKZF3 level, mean ([6]; 1 injection) | IKZF3 level, mean ([6]; 7 injections) | IKZF3 quantification ([6]; RC-1 50 mg/kg, 50 mg/kg) | IKZF3 quantification ([6]; RC-1 100 mg/kg, 100 mg/kg) | maximum BTK degradation ([3]; dosed up to 25 µM, 24 h)
3 | CN(CCCNC(=O)CNc1cccc2c1C(=O)N(C1CCC(=O)NC1=O)C2=O)C(C)(C)C=C(C#N)C(=O)N1CCC[C@@H](n2nc(-c3ccc(Oc4ccccc4)cc3)c3c(N)ncnc32)C1 (stereo partly drawn) [RC-1] | 25.1% | < 0.00692 ×10⁻⁶ cm/s | 63.6968 and 56.9893 | 41.0784 and 35.9122 | 29.8182 and 40.565 | dose-dependent BTK degradation; also recorded: degrades both wild-type BTK and the C481S mutant with similar potency | 28.3764% and 24.0469% and 29.6497% and 18.1013% and 27.4262% | 86.471% and 91.0355% and 88.9002% and 84.3749% and 77.1755% | 40.1501% and 37.7601% and 35.1644% and 26.339% and 31.6381% | 96.9028% and 99.5475% and 70.4757% and 81.6714% and 61.4054% | 90.2127% and 74.3055% and 49.5631% and 47.134% and 61.6895% | 17.0239% and 17.5724% and 29.8456% and 19.8449% and 25.2419% | 98.4014% and 91.3588% and 67.7918% and 72.9048% and 65.2157% | 0.08 µM | dose-dependent BTK degradation; also recorded: degrades both wild-type BTK and the C481S mutant with similar potency | 34.6975 | 73.2929 | 18.4248 and 33.3032 and 114.952 and 16.6702 | 2.1 and 60.2254 and 21.7286 | 30–40%
